≈ marks a conversion by molar mass, not a printed value. Where “and” joins values, the source holds several entries; their conditions need not be identical. Identical values can stand only once. Like-named read-outs stand apart in the source and are kept apart here.
Columns and labels:
[1] = tested on: E. faecium 3303; experiment: microbe, parasite or virus in culture; type: cell-based, Enterococcus faecium; conditions: for MIC Alone / MIC In combination / Max. fold change in MIC: E. faecium 3303; for MIC Alone: compound alone in checkerboard; for Max. fold change in MIC: decrease; for activities of the terpene with CBC, CBO, or CBG: terpene-cannabinoid combinations
Text: In therapeutic applications, synergy between active ingredients occurs when an observed combined therapeutic effect is greater than the sum of therapeutic effects of individual active ingredients, or a new therapeutic effect is produced that the active ingredients could not produce alone. […] In this context, the enhancement of therapeutic effect may take the form of increased efficacy or potency and/or decreased adverse effects. The synergistic effect may be mediated in whole or in part by the pharmacokinetics and/or pharmacodynamics of the active ingredients in a subject, so that the amount and proportion of the ingredients in the formulation may be synergistic in vivo. This in vivo synergy may be effected with a formulation that includes the active ingredients in amounts and proportions that are also synergistic in in vitro assays of efficacy. As used herein, the term “synergistically effective amounts” accordingly refers to amounts that are synergistic in vivo and/or in vitro. A numeric quantification of synergy is often expressed as a fractional inhibitory concentration index (FICI), which represents the sum of the fractional inhibitory concentrations (FICs) of each drug tested, where the FIC is determined for each drug by dividing the minimum inhibitory concentration (MIC, the lowest concentration of the drug which prevents visible growth of the bacterium in a standard in vitro assay-standard colorometric assay based on resazurin) of each drug when used in combination by the MIC of each drug when used alone. In very general terms, a FICI lower or higher than 1 indicates positively correlated activity (at least additive or potentiation) or an absence of positive interactions, respectively. More definitively, synergy of two compounds may be conservatively defined as a FICI of ::::0.5 (see Odds, 2003; with additivity or potentiation corresponding to a FICI of >0.5 to ::::0.75; no interaction (indifference) corresponding to a FICI of >1 to ::::4; and antagonism corresponding to a FICI of >>4). Synergy of three compounds has been defined as a FICI of ::::1.0. (Berenbaum, 1978; Yu et al., 1980). To estimate the optimal concentrations in triple combinations, the optimal concentrations of trans-caryophyllene and cannabinoid were utilized in combination with a series of daptomycin dilutions.
(§1) Pre-cultures of bacteria growing in their corresponding liquid media (defined below) were diluted to an 00600 of 0.0025 and 100 μl was added to 100 μl of medium containing serial 2-fold dilutions of cannabinoid (cannabinoid stocks, in methanol or acetonitrile for acidic forms, were diluted in growth medium) in 96-well plates. Plates were then incubated for 20-24 h at 37° C., and growth was recorded as 00600 in a Thermo Scientific™ Varioskan™ Flash Multimode Reader.
Method for Tables 4-7. Interaction of Cannabinoids CBC, CBD and CBG with Terpenes and Daptomycin:
(§2) FICI values was determined in a 96 well checkerboard format using the MIC assay for cannabinoids (compound A), terpenes (compound B), and daptomycin (compound C) alone and in combinations. Terpene stocks were prepared in DMSO and diluted in the growth medium. The fractional inhibitory concentration for each compound was calculated as follows: FICA=(MIC of compound A in the presence of compound B)/(MIC of compound A alone). Similarly, the FICs for compounds Band C were calculated. The FICI was calculated as FICA plus FICs plus FICc.

[2] = tested on: E. faecium VRE 55A6; experiment: microbe, parasite or virus in culture; type: cell-based, Enterococcus faecium; conditions: E. faecium VRE 55A6
Text: In therapeutic applications, synergy between active ingredients occurs when an observed combined therapeutic effect is greater than the sum of therapeutic effects of individual active ingredients, or a new therapeutic effect is produced that the active ingredients could not produce alone. […] In this context, the enhancement of therapeutic effect may take the form of increased efficacy or potency and/or decreased adverse effects. The synergistic effect may be mediated in whole or in part by the pharmacokinetics and/or pharmacodynamics of the active ingredients in a subject, so that the amount and proportion of the ingredients in the formulation may be synergistic in vivo. This in vivo synergy may be effected with a formulation that includes the active ingredients in amounts and proportions that are also synergistic in in vitro assays of efficacy. As used herein, the term “synergistically effective amounts” accordingly refers to amounts that are synergistic in vivo and/or in vitro. A numeric quantification of synergy is often expressed as a fractional inhibitory concentration index (FICI), which represents the sum of the fractional inhibitory concentrations (FICs) of each drug tested, where the FIC is determined for each drug by dividing the minimum inhibitory concentration (MIC, the lowest concentration of the drug which prevents visible growth of the bacterium in a standard in vitro assay-standard colorometric assay based on resazurin) of each drug when used in combination by the MIC of each drug when used alone. In very general terms, a FICI lower or higher than 1 indicates positively correlated activity (at least additive or potentiation) or an absence of positive interactions, respectively. More definitively, synergy of two compounds may be conservatively defined as a FICI of ::::0.5 (see Odds, 2003; with additivity or potentiation corresponding to a FICI of >0.5 to ::::0.75; no interaction (indifference) corresponding to a FICI of >1 to ::::4; and antagonism corresponding to a FICI of >>4). […] (Berenbaum, 1978; Yu et al., 1980). To estimate the optimal concentrations in triple combinations, the optimal concentrations of trans-caryophyllene and cannabinoid were utilized in combination with a series of daptomycin dilutions.
as §1, §2

[3] = tested on: Mycobacterium abscessus ATCC 19977; experiment: MIC determination (resazurin); type: cell-based
[4] = tested on: Staphylococcus epidermidis ATCC 12228; experiment: MIC determination; type: cell-based; conditions: Staphylococcus epidermidis, ATCC12228
[5] = tested on: E. faecium clinical isolate 58C9 (vancomycin and daptomycin resistant); conditions: clinical enterococcal strain 58C9, vancomycin and daptomycin resistant
[6] = tested on: Staphylococcus aureus MRSA; experiment: microbe, parasite or virus in culture; type: cell-based
[7] = tested on: Streptococcus pyogenes ATCC 51878; experiment: MIC determination; type: cell-based; conditions: Streptococcus pyogenes, ATCC51878
[8] = tested on: Enterococcus faecium 33D3
[9] = tested on: E. faecium clinical isolate 55A6 (vancomycin and daptomycin resistant); conditions: clinical enterococcal strain 55A6, vancomycin and daptomycin resistant
[10] = tested on: Staphylococcus epidermidis ATCC 14990; experiment: MIC determination; type: cell-based; conditions: Staphylococcus epidermidis, ATCC14990
[11] = tested on: Mycobacterium tuberculosis H37Rv; experiment: MIC determination (PrestoBlue); type: cell-based
[12] = tested on: Enterococcus faecalis; experiment: MIC determination; type: cell-based
[13] = tested on: E. faecium clinical isolate 69C6 (vancomycin resistant); conditions: clinical enterococcal strain 69C6, vancomycin resistant
[14] = tested on: Enterococcus faecium 33D3; experiment: microbe, parasite or virus in culture
[15] = tested on: E. faecium clinical isolate 69C6 (vancomycin resistant); experiment: microbe, parasite or virus in culture; conditions: Enterococcus faecium
[16] = tested on: E. faecium clinical isolate 55A6 (vancomycin and daptomycin resistant); experiment: microbe, parasite or virus in culture; conditions: Enterococcus faecium
[17] = tested on: E. faecium clinical isolate 58C9 (vancomycin and daptomycin resistant); experiment: microbe, parasite or virus in culture; conditions: Enterococcus faecium
[18] = triple, with daptomycin and CBC
[19] = triple, with daptomycin and CBD
[20] = triple, with daptomycin and CBG
[21] = 33D3, Enterococcus faecium 33D3 (Table 1)
[22] = 33D3, clinical enterococcal strain 3303
[23] = Mycobacteroides abscessus, ATCC19977
[24] = Mycobacterium tuberculosis, H37RV, Media 7H9, read-out: MIC
[25] = Mycobacterium tuberculosis, H37RV, Media PB, read-out: MIC

Structure (SMILES): C=C1CC/C=C(\C)CC[C@@H]2[C@@H]1CC2(C)C (relative stereo) [Trans-caryophyllene, trans-caryophyllene]
- MIC Alone [1]: >16 µg/mL and 16 µg/mL
- MIC Alone ([1]; listed as Tram-caryophyllene): 32 µg/mL
- MIC In combination ([1]; pairwise, with CBC): 0.25 µg/mL
- Max. fold change in MIC ([1]; pairwise, with CBC): 64 l fold
- MIC In combination ([1]; pairwise, with CBD): 2 µg/mL
- MIC In combination ([1]; pairwise, with CBG): 4 µg/mL
- Max. fold change in MIC ([1]; pairwise, with CBG): 8″′ fold
- MIC In combination ([1]; pairwise, with daptomycin): 4 µg/mL
- Max. fold change in MIC ([1]; pairwise, with daptomycin): >4 l fold and >4″′ fold
- MIC In combination [1, 18]: 2 µg/mL
- Max. fold change in MIC [1, 18]: 8 l fold
- MIC In combination [1, 19]: 2 µg/mL
- Max. fold change in MIC [1, 19]: 8 fold
- MIC In combination [1, 20]: 1 µg/mL
- Max. fold change in MIC [1, 20]: 16 fold
- activities of the terpene with CBC, CBO, or CBG [1]: synergistic activities
- MIC In combination ([2]; pairwise, with CBC): 1 µg/mL
- Max. fold change in MIC ([2]; pairwise, with CBC): >32 fold
- MIC In combination ([2]; pairwise, with CBD): 8 µg/mL
- Max. fold change in MIC ([2]; pairwise, with CBD): >4 fold
- MIC In combination ([2]; pairwise, with CBG): >32 µg/mL
- Max. fold change in MIC ([2]; pairwise, with CBG): none
- MIC In combination ([2]; pairwise, with daptomycin): 2 µg/mL
- Max. fold change in MIC ([2]; pairwise, with daptomycin): >8 fold
- MIC In combination [2, 18]: 2 µg/mL
- Max. fold change in MIC [2, 18]: > 32 fold
- MIC In combination [2, 19]: 2 µg/mL
- Max. fold change in MIC [2, 19]: > 32 fold
- MIC In combination [2, 20]: 2 µg/mL
- Max. fold change in MIC [2, 20]: > 32 fold

Structure (SMILES): CCCCCc1cc2c(c(O)c1C(=O)O)C=CC(C)(CCC=C(C)C)O2 (stereo not shown) [CBCA, cannabichromic acid]
- MIC ([3]; Mycobacterium abscessus ATCC 19977): 4 µg/mL (≈ 11.2 µM)
- MIC [4]: 2 µg/mL (≈ 5.58 µM)
- MIC [5]: 4 µg/mL (≈ 11.2 µM)
- MIC [6]: 4 µg/mL (≈ 11.2 µM)
- MIC [7]: 0.5 to 1 µg/mL
- MIC ([8]; Enterococcus faecium 33D3 (Table 1)): 4 µg/mL (≈ 11.2 µM)
- MIC ([8]; clinical enterococcal strain 3303): 4 µg/mL (≈ 11.2 µM)
- MIC [9]: 2 µg/mL (≈ 5.58 µM)
- MIC [10]: 2 µg/mL (≈ 5.58 µM)
- MIC ([11]; Media 7H9): 2 µg/mL (≈ 5.58 µM)
- MIC ([11]; Media PB): 4 µg/mL (≈ 11.2 µM)
- MIC [12]: 4 µg/mL (≈ 11.2 µM)
- MIC [13]: 4 µg/mL (≈ 11.2 µM)

Structure (SMILES): C=C(C)[C@@H]1CCC(C)=C[C@H]1c1c(O)cc(CCCCC)c(C(=O)O)c1O [CBDA, cannabidiolic acid]
- MIC [14, 21]: 16 µg/mL (≈ 44.6 µM)
- MIC [14, 22]: 16 µg/mL (≈ 44.6 µM)
- MIC [3, 23]: 32 µg/mL (≈ 89.3 µM)
- MIC [4]: 4 µg/mL (≈ 11.2 µM)
- MIC [6]: 16 µg/mL (≈ 44.6 µM)
- MIC [7]: 8 µg/mL (≈ 22.3 µM)
- MIC [15]: 16 µg/mL (≈ 44.6 µM)
- MIC [10]: 4 µg/mL (≈ 11.2 µM)
- MIC [16]: 16 µg/mL (≈ 44.6 µM)
- MIC [11, 24]: 2 µg/mL (≈ 5.58 µM)
- MIC [11, 25]: 4 µg/mL (≈ 11.2 µM)
- MIC [17]: 16 µg/mL (≈ 44.6 µM)
- MIC [12]: 16 µg/mL (≈ 44.6 µM)

Structure (SMILES): CCCCCc1cc(O)c(C/C=C(\C)CCC=C(C)C)c(O)c1C(=O)O [CBGA, cannabigerolic acid]
- MIC [14, 21]: 16 µg/mL (≈ 44.4 µM)
- MIC [14, 22]: 16 µg/mL (≈ 44.4 µM)
- MIC [3, 23]: 16 µg/mL (≈ 44.4 µM)
- MIC [4]: 2 µg/mL (≈ 5.55 µM)
- MIC [6]: 1 µg/mL (≈ 2.77 µM)
- MIC [7]: 2 µg/mL (≈ 5.55 µM)
- MIC [15]: 8 µg/mL (≈ 22.2 µM)
- MIC [10]: 2 µg/mL (≈ 5.55 µM)
- MIC [16]: 8 µg/mL (≈ 22.2 µM)
- MIC [11, 24]: 4 µg/mL (≈ 11.1 µM)
- MIC [11, 25]: 2 µg/mL (≈ 5.55 µM)
- MIC [17]: 16 µg/mL (≈ 44.4 µM)
- MIC [12]: 8 µg/mL (≈ 22.2 µM)

Structure (SMILES): C/C1=C\CC/C(C)=C/CC(C)(C)/C=C/C1 [a-humulene]
- activities of the terpene with CBC, CBO, or CBG [1]: synergistic activities
